From PMC10826971, “Evaluating protein cross-linking as a therapeutic strategy to stabilize SOD1 variants in a mouse model of familial ALS” (PLOS Biology, 2024)
Converted amounts (≈) assume the structure as drawn. “And” between values parts separate entries of the source, which are not always exact repeats. Identical values can stand only once. “Also recorded” adds a separate entry of the source.

Tests used:
SOD1^A4V = biological target: T1, SOD1^A4V (Homo sapiens, UniProt P00441, A5V); experiment: Differential scanning fluorimetry (DSF), thermal stability; type: binding
T1 construct: made in house; host or cells: EGy118ΔSOD1 yeast, YEp351 expression vector
Procedure: To understand how cross-linking effects SOD1 stability, we quantified changes in unfolding temperature (ΔTu, hereafter thermal stability).
The effect of cross-link formation on the thermal stability of SOD1 was determined by differential scanning fluorimetry as previously described. […] After incubation, SYPRO Orange (Invitrogen Corporation, Carlsbad, California, USA), an environmentally sensitive fluorescent dye which is quenched in an aqueous environment but becomes unquenched once it binds hydrophobic residues, was added to the reaction mixture to a final concentration of 200×. The samples were then transferred to a fast optical 96-well reaction plate (Applied Biosystem, Life Technologies Corporation, Carlsbad, California, USA) and loaded on to the real-time PCR machine (Applied Biosystem, Life Technologies Corporation, Carlsbad, California, USA) after plate was spun down to eliminate bubbles. The Melt curve template in StepOne Plus software was used to set up a method. […] The final concentration of DMSO in the reaction mixture was checked as it contributes to the denaturation of proteins. Dilutions were performed accordingly to maintain the final concentration of DMSO less than 1% (vol/vol). All samples were run in technical triplicates. The background data was subtracted from the average relative fluorescence and average derivate for each temperature point, and the data were normalized before Tus were quantified by averaging the negative first derivative of relative fluorescence of all 3 runs and identifying the local minima.

wild-type SOD1 = wild-type SOD1 (Homo sapiens, UniProt P00441); experiment: SOD1 cross-linking in Hep G2 cells, SDS-PAGE and western blot; type: cell-based; conditions: Hep G2 cells in PBS buffer, 30 min
Procedure: The Hep G2 human hepatocarcinoma cell line (American Type Culture Collection, ATCC, Manassas, Virginia, USA) was cultured using complete EMEM (Eagle’s minimal essential medium, ATCC) media including 10% FBS (fetal bovine serum, ATCC) and 1% penicillin streptomycin (10,000 units/mL penicillin and 10,000 μg/mL streptomycin, Fisher Scientific, Hampton, New Hampshire, USA). Cells were counted and checked for morphology using an inverted Carl Zeiss microscope (Carl Zeiss Microscopy LLC, White Plains, New York, USA). A 96-well plate (Corning Life Sciences, Tewksbury, Massachusetts, USA) was used for culturing cells at 0.2 mill/mL concentration for 24 h at 37°C, 5% CO2 under controlled humidity for western blot experiment. […] Wild-type SOD1 purified from human erythrocyte (Sigma Aldrich, St. Louis, Missouri, USA) was used as positive control (standard) in the experiment. The growth buffer was aspirated and replaced with 30 μL of lysis buffer (150 mM NaCl, 1% Triton X-100, 0.5% sodium deoxycholate, 0.1% SDS, and 50 mM Tris (pH 8.0), all chemicals were purchased from Sigma Aldrich (St. Louis, Missouri, USA)) and incubated for 10 min followed by addition of non-reducing sample buffer. […]

[1] = test system: alpha 1-acid glycoprotein; type: in vitro ADME
B6SJL G93A mice = experiment: Survival study, hybrid B6SJL G93A mice, S-XL6 SC 20 then 50 mg/kg once a day Monday to Friday; type: in vivo, mouse
Source text: Two fALS lines were used to assess survival in genetic backgrounds with different disease severity. […] Dose and dose regimen were estimated from the blood PK/PD profile and BBB penetration described above. A subcutaneous (SC) route of administration was chosen because in our hands it results in more precise delivery. […] In both studies, mice were gender and littermate matched and non ALS-related deaths were excluded. We are currently developing the methods necessary for quantifying copy number and cannot rule out reduced SOD1 expression as having contributed to the survival benefit in treated B6 G93A mice.
The first line was derived by crossing (over >10 generations) congenic fALS “B6 G93A mice” (B6.Cg-Tg(SOD1*G93A)1Gur/J, Stock No. 004435, The Jackson Laboratory, Bar Harbor, Maine, USA) with “YFP-16 mice” [50] (B6.Cg-Tg(Thy1-YFP)16Jrs/J, Stock No. 003709, The Jackson Laboratory, Bar Harbor, Maine, USA). This line maintains the C57BL/6J genetic background and expresses YFP in motor and sensory neurons to enable cellular-level molecular profiling in future studies. The second line is the standard “Hybrid B6SJL G93A mice” (B6SJL-Tg(SOD1*G93A)1Gur/J Stock No. 002726, The Jackson Laboratory, Bar Harbor, Maine, USA). Methods for survival studies have been described and followed the conventions for optimal trial design with fALS mice. Mice were tested for difference in: (1) disease onset (at least a 20% decrease in grip strength and open-field motor performance, which we expect to correlate with change in weight); (2) disease end-stage (disease score, e.g., loss of righting reflex); and (3) weight. The hybrid line was additionally tested for differences in forelimb and hindlimb grip strength.

Maximum solubility = type: physicochemical; conditions: pH 7.4, aqueous buffer

T1 sequence (P00441 2-154 A5V limits assumed): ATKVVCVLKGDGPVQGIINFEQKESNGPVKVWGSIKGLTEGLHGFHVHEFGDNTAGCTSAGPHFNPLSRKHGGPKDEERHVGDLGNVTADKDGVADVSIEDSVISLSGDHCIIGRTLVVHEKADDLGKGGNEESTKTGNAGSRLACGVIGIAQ
Sequence of wild-type SOD1 (P00441 2-154 limits assumed): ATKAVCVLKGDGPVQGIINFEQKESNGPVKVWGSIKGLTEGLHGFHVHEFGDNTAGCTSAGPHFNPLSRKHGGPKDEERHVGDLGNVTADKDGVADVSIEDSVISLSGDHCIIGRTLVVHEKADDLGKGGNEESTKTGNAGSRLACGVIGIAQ

[O-][S+]1CCCCS1 (centres unmarked) [S-XL6, 1,2-dithiane-1-oxide]
unfolding temperature (Tu) of S-XL6 cross-linked protein (SOD1^A4V; 10-fold molar excess S-XL6, 4 h 37°C, untreated 62.9°C): 79.3 °C
Normalized ROX (SOD1^A4V; SOD1 (A4V) + S-XL6, Avg. Temp 88.559): 0.8246
Normalized ROX (SOD1^A4V; SOD1 (A4V) + S-XL6, Avg. Temp 88.8631): 0.8068
Normalized ROX (SOD1^A4V; SOD1 (A4V) + S-XL6, Avg. Temp 89.1556): 0.7806
Normalized ROX (SOD1^A4V; SOD1 (A4V) + S-XL6, Avg. Temp 89.4509): 0.7704
Normalized ROX (SOD1^A4V; SOD1 (A4V) + S-XL6, Avg. Temp 89.7543): 0.7528
Normalized ROX (SOD1^A4V; SOD1 (A4V) + S-XL6, Avg. Temp 90.0524): 0.7438
Normalized ROX (SOD1^A4V; SOD1 (A4V) + S-XL6, Avg. Temp 90.3511): 0.7281
Normalized ROX (SOD1^A4V; SOD1 (A4V) + S-XL6, Avg. Temp 90.6551): 0.7134
Normalized ROX (SOD1^A4V; SOD1 (A4V) + S-XL6, Avg. Temp 90.9595): 0.6972
Normalized ROX (SOD1^A4V; SOD1 (A4V) + S-XL6, Avg. Temp 91.2522): 0.6869
Normalized ROX (SOD1^A4V; SOD1 (A4V) + S-XL6, Avg. Temp 91.5534): 0.6765
Normalized ROX (SOD1^A4V; SOD1 (A4V) + S-XL6, Avg. Temp 91.844): 0.6607
Normalized ROX (SOD1^A4V; SOD1 (A4V) + S-XL6, Avg. Temp 92.1549): 0.6557
Normalized ROX (SOD1^A4V; SOD1 (A4V) + S-XL6, Avg. Temp 92.4505): 0.6388
Normalized ROX (SOD1^A4V; SOD1 (A4V) + S-XL6, Avg. Temp 92.7501): 0.6357
Normalized ROX (SOD1^A4V; SOD1 (A4V) + S-XL6, Avg. Temp 93.0577): 0.6246
Normalized ROX (SOD1^A4V; SOD1 (A4V) + S-XL6, Avg. Temp 93.3585): 0.6123
Normalized ROX (SOD1^A4V; SOD1 (A4V) + S-XL6, Avg. Temp 93.6532): 0.6065
Normalized ROX (SOD1^A4V; SOD1 (A4V) + S-XL6, Avg. Temp 93.9591): 0.6047
Normalized ROX (SOD1^A4V; SOD1 (A4V) + S-XL6, Avg. Temp 94.2561): 0.5946
Normalized ROX (SOD1^A4V; SOD1 (A4V) + S-XL6, Avg. Temp 94.5503): 0.5850
Normalized ROX (SOD1^A4V; SOD1 (A4V) + S-XL6, Avg. Temp 94.8582): 0.5820
EC50 (wild-type SOD1): ~5 µM
binding to purified protein [1]: not bound
survival benefit (B6SJL G93A mice; 50 mg/kg SC once a day, Monday to Friday, from day 70): no survival benefit; also recorded: No survival improvement
Age (wks) (B6SJL G93A mice; individual mice, Tx D (dosed), age at end-stage, found dead or sacrifice): 17.7143 wks and 17.5714 wks and 17.8571 wks and 15.5714 wks and 18.7143 wks and 17.4286 wks and 16.1429 wks and 18 wks and 15.8571 wks and 17.1429 wks
Age (B6SJL G93A mice; individual mice, Tx D (dosed), age at end-stage, found dead or sacrifice (131-day mice sac'd for tissue)): 124 days and 123 days and 125 days and 109 days and 131 days and 122 days and 113 days and 126 days and 111 days and 120 days
solubility (Maximum solubility): 360 mM (≈ 49 mg/mL)
